# According to article PMC2851739 (General and comparative endocrinology, 2009):
# Ends that are not written are not given here.
# Tested on: AeaETHRs
# Assay: flash luminescence
# Type: cell-based, Aedes aegypti
# Conditions: peptides with related sequences
row,Substance,activity when tested at 10 μM
1,"ghrelin (GSSFLSPEHQRVQQRKESKKPPAKLQPR; ends and bridges not checked; UniProt Q9UBU3 24-51, looked up)",inactive
2,FMRFamide,inactive
3,"corazonin (QTFQYSRGWTN; ends and bridges not checked; UniProt Q26377 20-30, looked up)",inactive
